The target of the experiment is T1, Pancreatic alpha-amylase (Sus scrofa, UniProt P00690).
T1 sequence (P00690 whole entry): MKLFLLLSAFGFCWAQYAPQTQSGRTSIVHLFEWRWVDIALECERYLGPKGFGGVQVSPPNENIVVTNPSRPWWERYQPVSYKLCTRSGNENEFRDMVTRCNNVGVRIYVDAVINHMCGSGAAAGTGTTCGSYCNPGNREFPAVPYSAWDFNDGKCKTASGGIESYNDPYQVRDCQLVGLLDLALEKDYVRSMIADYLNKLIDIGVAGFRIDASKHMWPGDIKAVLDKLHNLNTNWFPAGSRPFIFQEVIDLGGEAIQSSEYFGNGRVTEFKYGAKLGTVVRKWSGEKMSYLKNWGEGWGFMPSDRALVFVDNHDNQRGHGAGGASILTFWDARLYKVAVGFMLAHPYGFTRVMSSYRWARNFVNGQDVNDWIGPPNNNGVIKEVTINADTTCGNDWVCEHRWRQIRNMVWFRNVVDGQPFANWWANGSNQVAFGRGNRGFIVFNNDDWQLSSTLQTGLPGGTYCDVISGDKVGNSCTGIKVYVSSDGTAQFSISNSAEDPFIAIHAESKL
In words: Inhibition of porcine pancreatic alpha-amylase using starch as substrate preincubated for 10 mins followed by substrate addition measured after 10 mins by dinitrosalicylic acid color reagent based assay.

Each structure is given as a SMILES string.

`Cc1ccc(CN2CCN(S(=O)(=O)c3ccc(F)cc3)CC2)cc1` came in with an IC50 of 1570 nM.
The result for `Cc1ccc(CN2CCN(S(=O)(=O)c3cc(Cl)ccc3Cl)CC2)cc1` reads 2880 nM; that for `Cc1ccc(CN2CCN(S(=O)(=O)c3ccc([N+](=O)[O-])cc3[N+](=O)[O-])CC2)cc1`, 2930 nM.
`Cc1ccc(CN2CCN(S(=O)(=O)c3ccccc3[N+](=O)[O-])CC2)cc1` had an IC50 of 3980 nM.
As to `Cc1ccc(CN2CCN(S(=O)(=O)c3cc(Cl)c(Cl)cc3Cl)CC2)cc1`, the half-inhibitory concentration (IC50) is 3520 nM.
Turning to `Cc1ccc(CN2CCN(S(=O)(=O)c3ccccc3C)CC2)cc1`, the IC50 was 2880 nM.
Regarding `Cc1ccc(CN2CCN(S(=O)(=O)c3ccccc3F)CC2)cc1`, 3050 nM corresponded to half-maximal inhibition (IC50).
For the molecule `COc1ccc(S(=O)(=O)N2CCN(Cc3ccc(C)cc3)CC2)cc1`, the half-maximal inhibitory concentration (IC50) is 2060 nM.
`Cc1ccc(CN2CCN(S(=O)(=O)c3ccccc3Cl)CC2)cc1` registered an IC50 of 3200 nM.
Molecule `Cc1ccc(CN2CCN(S(=O)(=O)c3cccc([N+](=O)[O-])c3)CC2)cc1` came in with a half-maximal inhibitory concentration (IC50) of 2750 nM.
As for `Cc1ccc(CN2CCN(S(=O)(=O)c3ccc(Cl)cc3Cl)CC2)cc1`, the IC50 worked out at 3140 nM.
`Cc1ccc(CN2CCN(S(=O)(=O)c3ccc([N+](=O)[O-])cc3)CC2)cc1`: half-maximal inhibition (IC50) was put at 2820 nM.
The molecule `Cc1ccc(CN2CCN(S(=O)(=O)c3cccc(Cl)c3Cl)CC2)cc1` showed an IC50 of 2670 nM.
For `Cc1ccc(CN2CCN(S(=O)(=O)c3cc(Cl)cc(Cl)c3)CC2)cc1`, the midpoint of inhibition, the IC50, lay at 3560 nM.
The figure for `Cc1ccc(CN2CCN(S(=O)(=O)c3ccc(C)cc3)CC2)cc1` is 2870 nM; for `Cc1ccc(CN2CCN(S(=O)(=O)c3ccc(Cl)cc3)CC2)cc1` it is 2350 nM.
Regarding `Cc1ccc(CN2CCN(S(=O)(=O)c3cccc(Br)c3)CC2)cc1`, the half-maximal inhibitory concentration (IC50) amounted to 3450 nM.
Molecule `Cc1ccc(CN2CCN(S(=O)(=O)c3ccc(Cl)c(Cl)c3)CC2)cc1` yielded an IC50 of 2980 nM.
Molecule `Cc1ccc(CN2CCN(S(=O)(=O)c3ccc(Br)cc3)CC2)cc1` registered a half-inhibitory concentration (IC50) of 2120 nM.

In general, IC50 refers to the concentration needed to halve the response being measured. Read a high IC50 as a need for much substance.

The values above are taken from ChEMBL document CHEMBL4251552, “Synthesis of piperazine sulfonamide analogs as diabetic-II inhibitors and their molecular docking study” (Eur J Med Chem, 2017).
